Data taken from patent publication US8796201B2 (The Board of Trustees of the Leland Stanford Junior …, priority 2002, dated 2014).
“Also recorded” adds a separate entry of the source. Blank lines part the entries; values can stand above or below the molecule they belong to. Where no end group is shown, it is not given here.

Legend:
α2-gliadin = assay: EPB2 activation and α2-gliadin digestion under acidic conditions; assay type: biochemical, wheat
From the text: The gene for an endoprotease (EPB2; […] accession number U19384, nt 94-1963) from barley (Hordeum vulgare subsp. vulgare) was subcloned into a pET28b (Invitrogen) vector using BamH1 and EcoR1 insertion sites; the resulting plasmid was designated pMTB1. […] The proprotein was solubilized from the inclusion bodies using 7 M urea. The solubilized protein was purified on a Ni-NTA column. Auto-activation of proEPB2 to its mature, active form was achieved by addition of citrate-phosphate buffer, pH 3 (prepared by mixing 0.1 M sodium citrate and 0.2 M sodium phosphate). Under such acidic conditions, proEPB2 converts rapidly into a mature form with a molecular weight of 30 kDa (FIG. 2). By 72 hours, mature EPB2 undergoes autolysis. N-terminal sequencing yielded an N-terminal sequence beginning with VSDLP.
The pH optimum of proEPB2 activation and α2-gliadin digestion is 2.4-3.5, which can therefore provide a treatment for Celiac Sprue consisting of oral administration of proEPB2.

[1] = tested on: FM PEP (recombinant prolyl endopeptidase from Flavobacterium meningosepticum); assay: 0.1 μM FM PEP in PBS buffer; conditions: 37° C.
chymotrypsin = assay: gastric and pancreatic proteases, chymotrypsin playing a major role
[2] = tested on: MX PEP (recombinant prolyl endopeptidase from Myxococcus xanthus); assay: 0.1 μM MX PEP in PBS buffer; conditions: 37° C.
[3] = tested on: pepsin (1:100 w/w ratio), trypsin (1:100), chymotrypsin (1:100), elastase (1:500) and carboxypeptidase (1:100); assay: composite gastric/pancreatic enzymatic digestion
[4] = tested on: pepsin or any pancreatic enzyme; assay: pepsin or any pancreatic enzyme
[5] = tested on: prolyl endopeptidase (PEP, specific activity 28 μU/pg) from Flavobacterium meningosepticum (US Biological, MA); assay: 27 ng/μl brush border membranes with exogenous prolyl endopeptidase from Flavobacterium meningosepticum; conditions: rat, up to one hour
[6] = tested on: SC PEP (recombinant prolyl endopeptidase from Sphingomonas capsulata); assay: 0.1 μM SC PEP in PBS buffer; conditions: 37° C., up to t=5 min
[7] = In vivo perfusion of peptides through rat jejunum; conditions: 15-20 cm jejunum segment, residence time 20 min
Procedure: FIG. 5. In vivo brush border membrane digestion of peptides.
In Vivo Endopeptidase Activity. An adult (female or male) rat was anesthetized and maintained at 36-37° C. during the entire surgical procedure. The peritoneal cavity was opened, and a small incision was made at the beginning and the end of a 15-20 cm jejunum segment. Polyethylene catheters were inserted and secured into the two ends. The input catheter was connected with a pump-driven syringe filled with a solution. The jejunum segment was perfused initially with PBS buffer to remove any residual debris at a flow rate of 0.4 ml/min. Purified peptide solutions (peptide concentration ranges from 25-100 μM) were then perfused at 0.4 ml/min through the jejunum segment with a 10-40 min residence time. In the case of a co-perfusion, the input catheter is connected with two simultaneous syringes, one with a peptide solution and the other with the prolyl endopeptidase solution (concentration ranges from 50-500 μU/μl). Fluid from the output catheter was collected into small centrifuge tubes in dry ice for subsequent analysis. The collected digestive products were analyzed by HPLC on a C18 column.

[8] = tested on: rat brush border membrane (BBM) peptidases; assay type: in vitro ADME
Procedure: To investigate the digestion of gluten, liquid chromatography coupled mass spectroscopy analysis (LC-MS-MS) was utilized to investigate the pathways and associated kinetics of hydrolysis of immunodominant gliadin peptides treated with rat BBM preparations. Because the rodent is an excellent small animal model for human intestinal structure and function, rat BBM was chosen as a suitable model system for these studies.
BBM fractions were prepared from rat small intestinal mucosa as described in Ahnen et al. (1982) J. Biol. Chem. 257, 12129-35. […] No proline aminopeptidase (EC 3.4.11.5) or prolyl endopeptidase activity (PEP, EC 3.4.21.26) activity was detectable (<5 μU/μg). Alkaline phosphatase and sucrase were used as control BBM enzymes with activities of 66 μU/μg and 350 μU/μg, respectively.
BBM fractions were partially purified from the small intestinal mucosa of adult female rats maintained on an ad libitum diet of wheat-based standard rodent chow. Total protein content was determined by a modified method of Lowry with BSA as a standard. Alkaline phosphatase activity was determined with nitrophenyl phosphate. Sucrase activity was measured using a coupled glucose assay. […] PEP activity was determined continuously with 0.4 mM Z-Gly-Pro-pNA in PBS:H2O:dioxane (8:1.2:0.8) at 30° C. One unit is the consumption of 1 μmol substrate per minute.
Proteolysis with the BBM preparation was investigated using the peptide (SEQ ID NO:1) […], a product of chymotryptic digestion of α-9 gliadin (Arentz-Hansen et al. (2000) J. Exp. Med. 191, 603-12). […] It was subjected to BBM digestion, followed by LC-MS-MS analysis. A standard 50 μl digestion mixture contained 100 μM of synthetic peptide, 10 μM tryptophan and Cbz-tryptophan as internal standards, and resuspended BBM preparations with a final protein content of 27 ng/μl and exogenous proteins, as indicated, in phosphate buffered saline. After incubation at 37° C. for the indicated time, the enzymes were inactivated by heating to 95° C. for 3 minutes. The reaction mixtures were analyzed by LC-MS (SpectraSystem, ThermoFinnigan) using a C18 reversed phase column (Vydac 218TP5215, 2.1×150 mm) with water:acetonitrile:formic acid (0.1%):trifluoroacetic acid (0.025%) as the mobile phase (flow: 0.2 ml/min) and a gradient of 10% acetonitrile for 3 minutes, 10-20% for 3 minutes, 20-25% for 21 minutes followed by a 95% wash. Peptide fragments in the mass range of m/z=300-2000 were detected by electrospray ionization mass spectroscopy using a LCQ ion trap and their identities were confirmed by MSMS fragmentation patterns.
BBM fractions were prepared from rat small intestinal mucosa.

[9] = tested on: Lactobacillus helveticus PEP (Genbank ID#321529)
PQPQLPYPQPQLP = assay: Acceleration of brush border mediated digestion by exogenous endoproteases; assay type: biochemical, wheat; conditions: 27 ng/μl BBM, one hour
Procedure: FIG. 3. Dose dependent acceleration of brush border mediated digestion by exogenous endoproteases. […] This peptide was digested with 27 ng/μl brush border membranes, either alone, with increasing amounts of exogenous prolyl endopeptidase (PEP, specific activity 28 μU/pg) from Flavobacterium meningosepticum (US Biological, MA), or with additional elastase (E-1250, Sigma, Mo.), bromelain (B-5144, Sigma, Mo.) or papain (P-5306, Sigma, Mo.) (12). After one hour, the fraction of remaining (SEQ ID NO:4) […] (compared to the initial amount at t=0 min) was analyzed and quantified as in FIG. 1.
Alerted by the high proline content as a hallmark of most immunogenic gliadin peptides, a proline-specific endopeptidase was tested for the generation of new, free peptide termini. A literature search on available proteases led to the identification of prolyl endopeptidase (PEP) from Flavobacterium meningosepticum, which is specific for the C-terminal cleavage of prolines and readily available from recombinant sources (Yoshimoto et al. (1991) J. Biochem. 110, 873-8). The stable (SEQ ID NO:4) […] intermediate was digested with BBM in the presence of exogenous PEP. […] As little as 3.5 pg PEP/27 ng BBM protein was sufficient to double the extent of proteolysis of this gliadin fragment compared to incubation with BBM alone. In comparison, other commonly used proteases like papain, bromelain or porcine elastase were much less efficient, requiring 30-fold (papain) or 3000-fold (bromelain, elastase) higher amounts of enzyme compared to PEP to give similar results. Their proteolysis was restricted to the cleavage of the Gln^4-Leu^5 and/or Gln^11-Leu^12 bonds.
A similar preferential cleavage was found for (SEQ ID NO:1) QLQPFP^↓QPQLPY. This is in agreement with the preference of this prolyl endopeptidase for a second proline in the S2′ position (Bordusa and Jakubke (1998) Bioorg. Med. Chem. 6, 1775-80). Based on this P^↓XP motif and on the present data, up to 16 new, major cleavage sites can be predicted in the α2-gliadin sequence, a major source of immunodominant epitopes identified thus far upon PEP treatment. All of them are located in the critical N-terminal part. The internal cleavage by PEP can be expected to generate additional (otherwise inaccessible) substrates for DPP IV and DCP thereby complementing the natural assimilation process of gliadins by the BBM. Thus, the specificity of prolyl endopeptidase is ideally suited for detoxification of persistent immunoactive gliadin peptides in Celiac Sprue.

PQPQLPYPQPQLPY = assay: Hydrolysis of gliadin peptide by pancreatic proteases; assay type: biochemical, wheat; conditions: elastase at 100 ng/μl (non-physiological)
From the text: Because BBM exopeptidases are restricted to N- or C-terminal processing, it was investigated if generation of additional free peptide ends by pancreatic enzymes would accelerate digestion.

[10] = kidney or brush border membranes

Molecule: EPB2: cysteine endoprotease from barley (Hordeum vulgare), accession U19384
- digestion of purified α2-gliadin (α2-gliadin; acidic conditions, mature form): efficiently digests purified α2-gliadin
- time by which mature form undergoes autolysis (α2-gliadin; citrate-phosphate buffer, pH 3): ≤ 72 h

- fragment found [2]: YPQPQPF, first_seen, t=5 min
Molecule: LQLQPFPQPQLPYPQPQLPYPQPQLPYPQPQPF
- fragment found [1]: (SEQ ID NO:12, aa 1-19) LQLQPFPQPQLPYPQPQLP, first_seen, t=1 min; also recorded: (SEQ ID NO:12, aa 1-14) LQLQPFPQPQLPYP, first_seen, t=1 min; also recorded: (SEQ ID NO:12, aa 1-12) LQLQPFPQPQLP, first_seen, t=1 min; also recorded: QPQPF, first_seen, t=1 min
- not cleaved (chymotrypsin): remained intact despite prolonged exposure to proteases
- not cleaved [3]: stable product of gastric and pancreatic digestion

- cleaved bond ([1]; up to t=5 min): P-Q, major, t=5 min
- cleaved bond ([2]; up to t=5 min): P-Y, major, t=5 min
Molecule: PQPQLPYPQPQLP
- not cleaved [4]: resistant to proteolysis by pepsin or any pancreatic enzyme
- cleaved bond [5]: Pro8-Gln9, major; also recorded: Pro6-Tyr7, minor
- cleaved bond [6]: P-Q, t=5 min; also recorded: P-Y, t=5 min

Molecule: QLQPFPQPQLPY
- fraction proteolyzed in the perfusion experiment [7]: > 90%
- apparent half life of disappearance of parent peptide [8, 10]: 35 min

- cleaved bond [9]: P-I
Molecule: RPKHPIKHQ

- clearance of digestive intermediates [8]: cleared completely within one hour
- apparent half life of disappearance of parent peptide [8, 10]: 10 min
Molecule: RRLIEDNEYTARG

- half-life of disappearance [8, 10]: ~60 min
Molecule: WQIPEQSR

- cleaved bond [9]: P-V and P-I
Molecule: YQEPVLGPVRGPFPIIV

- higher amount of enzyme compared to PEP to give similar results (PQPQLPYPQPQLP): 3000 fold
Molecule: bromelain [reference compound]

Molecule: chymotrypsin
- hydrolysis of PQPQLPYPQPQLPY (PQPQLPYPQPQLPY): No proteolysis was detected

Molecule: elastase: porcine elastase (E-1250, Sigma), pancreatic protease [reference compound]
- higher amount of enzyme compared to PEP to give similar results (PQPQLPYPQPQLP): 3000 fold
- hydrolysis of PQPQLPYPQPQLPY (PQPQLPYPQPQLPY): capable of hydrolyzing

Molecule: proEPB2: inactive proprotein form of barley endoprotease EPB2
- pH optimum of proEPB2 activation and α2-gliadin digestion (α2-gliadin): 2.4-3.5

Molecule: trypsin
- hydrolysis of PQPQLPYPQPQLPY (PQPQLPYPQPQLPY): No proteolysis was detected

- higher amount of enzyme compared to PEP to give similar results (PQPQLPYPQPQLP): 30 fold
B1: papain: papain (P-5306, Sigma) (protein, UniProt P00784 134-345, looked up)
Papain: IPEYVDWRQKGAVTPVKNQGSCGSCWAFSAVVTIEGIIKIRTGNLNEYSEQELLDCDRRSYGCNGGYPWSALQLVAQYGIHYRNTYPYEGVQRYCRSREKGPYAAKTDGVRQVQPYNEGALLYSIANQPVSVVLEAAGKDFQLYRGGIFVGPCGNKVDHAVAAVGYGPNYILIKNSWGTGWGENGYIRIKRGTGNSYGVCGLYTSSFYPVKN
